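Cultured in 96-well plates, cells were exposed to test compound for 48 hours across five concentrations. TGI is the concentration that stops growth completely.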
How the values were obtained:
Assay in all cases: NCI tumour cell line growth inhibition, 48 h
A549 NSCLC = test system: A549 NSCLC
SK-MEL-28 melanoma = test system: SK-MEL-28 melanoma
HOP-18 NSCLC = test system: HOP-18 NSCLC
SN12C renal = test system: SN12C renal
TK-10 renal = test system: TK-10 renal
COLO 205 colon = test system: COLO 205 colon
IGROV1 ovarian = test system: IGROV1 ovarian
SF-539 CNS = test system: SF-539 CNS
NCI-H23 lung = test system: NCI-H23 lung
ACHN renal = test system: ACHN renal
RXF 393 renal = test system: RXF 393 renal
DMS 273 small cell lung = test system: DMS 273 small cell lung
CCRF-CEM leukemia = test system: CCRF-CEM leukemia
SK-OV-3 ovarian = test system: SK-OV-3 ovarian
EKVX NSCLC = test system: EKVX NSCLC
KM20L2 colon = test system: KM20L2 colon
MOLT-4 leukemia = test system: MOLT-4 leukemia
K-562 leukemia = test system: K-562 leukemia
LOX IMVI melanoma = test system: LOX IMVI melanoma
SF-268 CNS = test system: SF-268 CNS
UACC-257 melanoma = test system: UACC-257 melanoma
HOP-92 NSCLC = test system: HOP-92 NSCLC
UO-31 renal = test system: UO-31 renal
786-0 renal = test system: 786-0 renal
NCI-H522 lung = test system: NCI-H522 lung
OVCAR-5 ovarian = test system: OVCAR-5 ovarian
HL-60(TB) leukemia = test system: HL-60(TB) leukemia
KM12 colon = test system: KM12 colon
LXFL 529 NSCLC = test system: LXFL 529 NSCLC
SK-MEL-2 melanoma = test system: SK-MEL-2 melanoma
SNB-19 CNS = test system: SNB-19 CNS
SF-295 CNS = test system: SF-295 CNS
OVCAR-8 ovarian = test system: OVCAR-8 ovarian
HCC-2998 colon = test system: HCC-2998 colon
SNB-75 CNS = test system: SNB-75 CNS
HCT-15 colon = test system: HCT-15 colon
DLD-1 colon = test system: DLD-1 colon
M19-MEL melanoma = test system: M19-MEL melanoma
OVCAR-4 ovarian = test system: OVCAR-4 ovarian
NCI-H460 lung = test system: NCI-H460 lung
OVCAR-3 ovarian = test system: OVCAR-3 ovarian
A498 renal = test system: A498 renal
SK-MEL-5 melanoma = test system: SK-MEL-5 melanoma
UACC-62 melanoma = test system: UACC-62 melanoma
CAKI-1 renal = test system: CAKI-1 renal
RPMI-8226 leukemia = test system: RPMI-8226 leukemia
U251 CNS = test system: U251 CNS
XF 498 CNS = test system: XF 498 CNS
M14 melanoma = test system: M14 melanoma
SW-620 colon = test system: SW-620 colon
HT29 colon = test system: HT29 colon
MALME-3M melanoma = test system: MALME-3M melanoma
NCI-H226 lung = test system: NCI-H226 lung
SNB-78 CNS = test system: SNB-78 CNS
HOP-62 NSCLC = test system: HOP-62 NSCLC
HCT-116 colon = test system: HCT-116 colon
DMS 114 small cell lung = test system: DMS 114 small cell lung
SR leukemia = test system: SR leukemia

Measured: TGI

C[C@H](NS(=O)(=O)c1ccc(NC(=O)c2ccccc2)cc1)C(=O)O
> 100 µM: A549 NSCLC | SK-MEL-28 melanoma | HOP-18 NSCLC | SN12C renal | TK-10 renal | COLO 205 colon | IGROV1 ovarian | SF-539 CNS | NCI-H23 lung | ACHN renal | RXF 393 renal | DMS 273 small cell lung | CCRF-CEM leukemia | SK-OV-3 ovarian | EKVX NSCLC | KM20L2 colon | MOLT-4 leukemia | K-562 leukemia | LOX IMVI melanoma | SF-268 CNS | UACC-257 melanoma | HOP-92 NSCLC | UO-31 renal | 786-0 renal | NCI-H522 lung | OVCAR-5 ovarian | HL-60(TB) leukemia | KM12 colon | LXFL 529 NSCLC | SK-MEL-2 melanoma | SNB-19 CNS | SF-295 CNS | OVCAR-8 ovarian | HCC-2998 colon | SNB-75 CNS | HCT-15 colon | DLD-1 colon | M19-MEL melanoma | OVCAR-4 ovarian | NCI-H460 lung | OVCAR-3 ovarian | A498 renal | SK-MEL-5 melanoma | UACC-62 melanoma | CAKI-1 renal | RPMI-8226 leukemia | U251 CNS | XF 498 CNS | M14 melanoma | SW-620 colon | HT29 colon | MALME-3M melanoma

COC(=O)/C(C#N)=C1\CCC(Nc2cccc(C(F)(F)F)c2)N1C (stereo not given)
> 100 µM: A549 NSCLC | SK-MEL-28 melanoma | HOP-18 NSCLC | SN12C renal | TK-10 renal | IGROV1 ovarian | SF-539 CNS | NCI-H23 lung | ACHN renal | RXF 393 renal | CCRF-CEM leukemia | SK-OV-3 ovarian | EKVX NSCLC | KM20L2 colon | MOLT-4 leukemia | K-562 leukemia | NCI-H226 lung | LOX IMVI melanoma | SF-268 CNS | UACC-257 melanoma | UO-31 renal | 786-0 renal | SNB-78 CNS | HOP-62 NSCLC | NCI-H522 lung | OVCAR-5 ovarian | HL-60(TB) leukemia | KM12 colon | LXFL 529 NSCLC | SK-MEL-2 melanoma | SNB-19 CNS | SF-295 CNS | OVCAR-8 ovarian | HCT-116 colon | HCC-2998 colon | SNB-75 CNS | DLD-1 colon | OVCAR-4 ovarian | NCI-H460 lung | OVCAR-3 ovarian | UACC-62 melanoma | CAKI-1 renal | RPMI-8226 leukemia | U251 CNS | XF 498 CNS | M14 melanoma | SW-620 colon | HT29 colon | MALME-3M melanoma

Cc1ccc(NC(=O)CSc2nnc(Cc3ccccc3)o2)c(C)c1
> 100 µM: A549 NSCLC | SK-MEL-28 melanoma | HOP-18 NSCLC | SN12C renal | TK-10 renal | COLO 205 colon | NCI-H23 lung | ACHN renal | RXF 393 renal | DMS 273 small cell lung | DMS 114 small cell lung | CCRF-CEM leukemia | SK-OV-3 ovarian | EKVX NSCLC | KM20L2 colon | MOLT-4 leukemia | K-562 leukemia | SR leukemia | NCI-H226 lung | LOX IMVI melanoma | SF-268 CNS | UACC-257 melanoma | UO-31 renal | 786-0 renal | SNB-78 CNS | HOP-62 NSCLC | NCI-H522 lung | HL-60(TB) leukemia | KM12 colon | LXFL 529 NSCLC | SK-MEL-2 melanoma | SNB-19 CNS | SF-295 CNS | OVCAR-8 ovarian | HCT-116 colon | SNB-75 CNS | HCT-15 colon | M19-MEL melanoma | OVCAR-4 ovarian | NCI-H460 lung | SK-MEL-5 melanoma | UACC-62 melanoma | RPMI-8226 leukemia | U251 CNS | XF 498 CNS | M14 melanoma | SW-620 colon | HT29 colon | MALME-3M melanoma
